Consider one compound from patent publication US20160025704A1, “METHODS FOR IDENTIFYING NEUROPROTECTIVE PKC ACTIVATORS” (priority 2013, published 2016).

Assay [1] deals with BDNF, NGF, NT-3, and GAP-43 mRNA. Description: NTF mRNA expression in primary hippocampal neurons treated with Aβ (real time PCR). The assay is classed as cell-based, rat. The settings on record: 100 nM; 1 μM Aβ; co-treated 24 hours or treated 12 hours after Aβ. The protocol:
Protocol: Primary hippocampal neurons were treated with control buffer (Untreated), Aβ (1 μM, oligomeric form), or 0.5 nM bryostatin for 24 hours. Some cells were co-treated with Aβ plus 0.5 nM bryostatin (Bryo+Aβ) for 24 hours, or pre-treated with Aβ for 12 hours, washed out, and then treated with bryostatin for additional 12 hours (Aβ+Bryo). Cells were then lysed and total RNA was isolated. Relative expression change of BDNF, NGF, NT-3, and GAP-43 mRNA was quantitatively measured from real time PCR using specific primers against rat BDNF, NGF, NT-3, and GAP-43 mRNA (FIG. 14). A representative gel image is also shown below in FIG. 14 (Mean+SEM, *P<0.05, Aβ compared with untreated; #P<0.05, Bryo+Aβ or Aβ+Bryo compared with Aβ only).
Test A—DCPLA (500 nM): Primary hippocampal neurons were treated with control buffer (Untreated), Aβ (1 μM, oligomer), or 500 nM DCPLA for 24 hours. Some cells were pre-treated with Aβ for 12 hr and then treated with 500 nM DCPLA for 12 hours (Aβ+DCP-LA), or co-treated with Aβ plus 500 nM DCP-LA (DCP-LA+Aβ) for 24 hours. Total RNA was isolated and relative expression change of BDNF, NGF, NT-3, and GAP-43 mRNA was quantitatively measured from real time RT-PCR using specific primers against rat BDNF, NGF, NT-3, and GAP-43 mRNA (FIG. 15). A representative gel image is also shown below in FIG. 15 (Mean+SEM of three independent experiments, *P<0.05, Aβ compared with untreated; #P<0.05, Aβ+Bryo or Bryo+Aβ compared with Aβ only).
Test B—DCPLA-methyl ester (100 nM): Primary hippocampal neurons were treated with control buffer (Untreated), 1 μM Aβ, or 100 nM DCP-LA ME (the methyl ester form of DCP-LA) for 24 hours. Some cells were pre-treated with Aβ for 12 hr and then treated with 100 nM DCP-LA ME for 12 hours (Aβ+DCP-LA ME), or co-treated with Aβ plus […] (DCP-LA ME+Aβ) for 24 hours. Total RNA was isolated and relative expression change of BDNF, NGF, NT-3, and GAP-43 mRNA was quantitatively measured from real time RT-PCR using specific primers against rat BDNF, NGF, NT-3, and GAP-43 mRNA (FIG. 16). […]
In general terms: In qPCR the cycle at which signal appears reflects the starting amount.

The test system of the next assay is Primary human neurons. Description: Synaptogenicity in primary human neurons. The assay is classed as cell-based. The settings on record: 100 nM. The protocol:
Protocol: Primary human neurons were treated with either DCPLA-methyl ester (100 nM) or bryostatin-1 (0.27 nM).

For the next assay, the system named is HCN-2 cells. Description: Synaptogenesis in HCN-2 cells. The assay is classed as cell-based, human. The note with it: 10 days. The protocol: FIG. 9 illustrates that activation of PKC-ε induces synaptogenesis in HCN-2 cells. The HCN-2 cell line was derived from cortical tissue removed from a patient undergoing hemispherectomy for intractable seizures associated with Rasmussen's encephalitis. The cells were treated with either DCPLA-methyl ester or bryostatin-1 for 10 days. […] Thus, PKC-ε activation can induce synaptogenesis in both embryonic and adult neuronal cells.

The target of a further assay is T1, PKC-ε (Homo sapiens, UniProt Q02156).
T1 sequence (Q02156 1-737): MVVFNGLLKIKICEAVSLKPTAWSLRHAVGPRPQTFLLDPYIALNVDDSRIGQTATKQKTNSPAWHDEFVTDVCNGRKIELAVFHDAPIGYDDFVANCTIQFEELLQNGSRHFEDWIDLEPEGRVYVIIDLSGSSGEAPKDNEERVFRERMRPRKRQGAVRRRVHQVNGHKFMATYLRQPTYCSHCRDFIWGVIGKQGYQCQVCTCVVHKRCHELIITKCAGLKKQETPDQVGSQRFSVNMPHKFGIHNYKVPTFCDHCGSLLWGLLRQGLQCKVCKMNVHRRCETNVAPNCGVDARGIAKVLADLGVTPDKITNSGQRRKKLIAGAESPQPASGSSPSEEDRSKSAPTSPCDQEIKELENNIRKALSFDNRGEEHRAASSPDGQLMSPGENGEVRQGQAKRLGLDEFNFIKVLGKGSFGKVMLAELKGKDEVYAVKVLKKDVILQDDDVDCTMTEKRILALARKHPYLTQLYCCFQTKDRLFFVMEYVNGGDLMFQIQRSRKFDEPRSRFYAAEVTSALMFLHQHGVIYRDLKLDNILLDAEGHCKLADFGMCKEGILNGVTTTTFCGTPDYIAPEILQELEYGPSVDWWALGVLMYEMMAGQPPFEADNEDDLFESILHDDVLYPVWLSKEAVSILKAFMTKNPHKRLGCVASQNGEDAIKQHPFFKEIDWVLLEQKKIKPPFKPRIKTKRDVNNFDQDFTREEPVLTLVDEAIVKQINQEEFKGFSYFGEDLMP
Put plainly: Activation of purified PKC isozymes. The assay is classed as biochemical. The settings on record: purified PKC isozymes (9 ng), preincubated 5 minutes at room temperature. The protocol: Protocol: Purified PKC-α, βII, γ, δ, or ε (9 ng) was preincubated for 5 minutes at room temperature with the following PKC activators: (A) DHA-CP6, (B) EPA-CP5, (C) AA-CP4, (D) DCP-LA, (E) “other cyclopropaneated and epoxidized fatty acids, alcohols, and methyl esters.” followed by measurement of PKC activity as described under Experimental Procedures. Results are shown below in FIG. 6.

Another assay deals with Human primary neurons. Description: ASPD-induced apoptosis in human primary neurons (Annexin-V Fluorescein). The assay is classed as cell-based. The settings on record: 100 nM with 100 nM ASPD, 24 hours. How it is done:
Protocol: Human primary neurons were grown on chambered slides and treated with vehicle (Control), 100 nM ASPD, ASPD+DCPLA-ME (100 nM), ASPD+bryostatin 1 (0.27 nM) and ASPD+DCPLA-ME (100 nM) or ASPD+bryostatin 1 (0.27 nM) in presence of PKC-ε inhibitor. Following 24 hours of incubation, cells were stained using Annexin-V Fluorescein to detect apoptotic cells and results are shown in FIG. 10 below. […] Data are mean±SEM of three independent experiments. (*p<0.05;** p<0.005 and *** p<0.0005).

Assay [2] relates to neurons in the CA1 hippocampal area. Description: Apoptotic cell death (TUNEL) in hippocampal CA1 area after ischemic (2-VO)/hypoxic event. It is filed as in vivo. The settings on record: FIG. 11 legend; dose not given. The protocol: Protocol: Bryostatin-1 (15 μg/m^2) was administered through a tail vein (2 doses/week, for 10 doses), starting 24 hours after the end of the ischemic (2-VO)/hypoxic event. Staining for apoptotic cell death in the hippocampal CA1 area was performed 9 day after the last bryostatin-1 dose. […] (C) Quantification of TUNEL staining in stratum radiatum (n=3 animals; n=30 confocal images). Con=control; Bry=bryostatin-1; Isch=cerebral ischemia; ***, P<0.001.

With `CCCCCC1CC1CC1CC1CCCCCCCC(=O)OC` (stereo not shown) [DCPLA-methyl ester], the “NTF mRNA expression decreased by Aβ” value in assay [1] is given as “recovers NTF mRNA expression decreased by Aβ”. In addition, the “co-localized staining of PSD-95 and synaptophysin in puncta (number of synapses)” value in the assay on Primary human neurons (30 days) is “an increase in co-localized staining of PSD-95 and synaptophysin in puncta”. Besides, the “survival, neuritic branching and connections” value with Primary human neurons (40 days) is “improved survival with increased neuritic branching and connections”. The “differentiation, neuronal branching and punctate colocalization of PSD-95 and synaptophysin” value in the assay on HCN-2 cells is “significant differentiation with neuronal branching and increased punctate colocalization of PSD-95 and synaptophysin”. In addition, the “PKC-ε specificity versus PKC-α and PKC-δ” value on PKC-ε was “PKC-ε specificity ±15% PKC-α and PKC-δ”. For the same compound, the “protection against ASPD-induced apoptosis” value in the assay with Human primary neurons is listed as “protected against ASPD-induced apoptosis”. In addition, in assay [2], the “apoptotic cell death in neurons in the CA1 hippocampal area” value was “prevents apoptotic cell death”.
